Data set [1] concerns TNF. In words: Serum TNF activity (bioassay) and levels (ELISA) in LPS treated mice. Type of data set: in vivo, mice (C57BL/6). The following applies: 100 μg LPS ip with 200 μg/mouse compound, 90 min. On the procedure:
An early response to LPS administration is the elevation of serum levels of TNF, which peaks at 1.5-2 hr after LPS administration. Mice treated with LPS serve as a model for the effect of drugs on reducing TNF levels under these conditions.
Serum levels of TNF peak within 1.5 hr following LPS administration, and at this time point, we assessed both TNF activity and levels in the serum.
Mice (C57BL/6) were injected ip with 100 μg LPS, concomitantly with HU-211, HU-210, or HU-245 (200 μg/mouse), and 90 min later they were bled, the sera separated and TNF was assayed for its activity (bioassay) and levels (using ELISA kit).

In a further data set the test system is EAE. The data set is described as follows: Experimental autoimmune encephalomyelitis (EAE) in Lewis rats. It is filed as in vivo. The following applies: single iv injection day 10 to 18 post induction, FIG. 6. From the text: Autoimmune diseases are associated with elevated levels of TNF. The models which are most conveniently studied are experimental allergic encephalomyelitis (EAE) and experimental autoimmune arthritis in rodents. EAE is an autoimmune neurological disease elicited by sensitization of the animals to myelin basic protein from the central nervous system, which is also known as basic encephalitogenic protein. EAE is considered by many to represent a model of the human disease multiple sclerosis. Experimental autoimmune arthritis is induced in animals by immunization with collagen in complete Freund's adjuvant. The ability of compounds of the general formula I to prevent or attenuate the clinical symptoms of these autoimmune diseases was tested.
The Lewis rats used were 8 week old females (from OLAC, England). The animals (5 per cage) were maintained on a 12 hour light/12 hour dark regimen, at a constant temperature of 22° C., with food and water ad libitum. EAE was induced in these animals by immunization with purified guinea pig myelin basic protein emulsified in complete Freund's adjuvant. Guinea pig myelin basic protein (mbp) was prepared from spinal cord homogenates defatted with chloroform/ethanol and the isolated protein was purified using ion exchange chromatography. Each animal received 50 micrograms of the purified protein. […]

The nature of data set [2]: Solubility in water / aqueous solutions. Type of data set: physicochemical. An excerpt: Among the novel compounds tested, monoesters including nicotinate, succinate and maleate are preferred. Most preferred compounds include the glycinate ester and N-substituted glycinate ester salts, such as the trimethyl- and triethylammonium acetate derivatives of HU-211. These novel compounds have the added advantage of being soluble in some aqueous solutions, whereas the parent compounds are extremely hydrophobic.
This makes the development of formulations suitable for intravenous administration of HU-211 difficult, hampering its clinical application. Water-soluble derivatives of HU-211 designed to readily release the drug by hydrolysis following i.v. administration might overcome this problem and will be used as prodrugs.

The conditions of data set [3]: doses several thousand times higher than the ED50 of HU-210; cited from earlier work.
The test system of a further data set is LPS treated mice. In words: Survival of LPS treated mice. Type of data set: in vivo, BALB/c male mice. The following applies: for survival rate / mortality: 24 hours. On the procedure: The effect of HU-211 on the survival of mice, in response to administration of LPS was assessed. The survival was followed up to 48 hr.
Animals are administered with either HU-211 at a dose of 10 mg/kg i.p. or vehicle alone (10 ml/kg i.p.), and 30 minutes later with LPS IV. Two dose levels of LPS were tested in the present study: 10 and 15 mg/kg.
Mortality rate was recorded once a day for 2 days.

Data set [4] relates to TNF. The data set is described as follows: Closed head injury (head trauma) model in rats: TNF, edema, clinical outcome. The following applies: FIG. 4. It is filed as in vivo, rat. An excerpt:
Closed head injury is associated with high mortality and morbidity. It induces edema formation, blood-brain-barrier (BBB) disruption, neuronal cell death and impairment of motor and cognitive functions. Animals subjected to head trauma in a controlled fashion serve as models in which to test drugs of therapeutic potential. Test compounds can be evaluated both for improved clinical outcome and for reduction of edema induced by closed head injury. The ability of compounds to reduce the severity of neurological symptoms and to reduce brain edema is considered a measure of their potency in reducing brain damage.
The effect of HU-211 on TNF production was assessed in a model of head trauma (HT) in rats. Injury was induced in anesthetized rats by a weight-drop device followed by a recovery period of up to 30 days. This type of trauma produces brain edema (i.e. increase in water content, decrease in specific gravity in the brain), breakdown of the blood brain barrier (BBB), clinical and cognitive dysfunction. […]
In this experiment we compared the effects of two agents: 1) pentoxyfilline (PTX), a methylxanthine known for its ability to prevent or attenuate the LPS-induced release of TNF both in vitro and in vivo. […] The levels of TNF were measured after CHI in order to determine whether the beneficial effect of HU-211 is also associated with suppression of TNF production or activity.

A short description of data set [5]: Phase I clinical trials, intravenous, healthy human volunteers. Type of data set: in vivo. The following applies: dose ranges contemplated for humans.
Data set [6] has as its system TNF. The following applies: rats, 48 hours after HT; cited from earlier work.

Entries after “also recorded” stand apart in the source; their conditions may differ.

The text below walks through data of patent publication US6545041B2, “Tumor necrosis factor alpha (TNF-α) inhibiting pharmaceuticals” (Yessum Research Development Co. of the Hebrew University of …, priority 1995, dated 2003).

Turning to `CCCCCCC(C)(C)c1cc(O)c2c(c1)OC(C)(C)[C@H]1CC=C(CO)C[C@H]21` [HU-211, (+)-(3S,4S)-1,1-dimethylheptyl homologue of 7-hydroxy-Δ^6-tetrahydrocannabinol], the “TNF levels in serum (ELISA)” value with TNF [1] is “significantly reduced; also recorded: attenuated the LPS-induced production and action of TNF to a very pronounced extent”. Further, the “TNF activity (S50) in serum, bioassay” value in the data set on TNF [1] (LPS control 1233±237) was “significantly reduced; also recorded: attenuated the LPS-induced production and action of TNF to a very pronounced extent”. Moreover, the mean clinical score result in the data set with EAE was “diminution of mean clinical score”. For the same molecule, the “solubility in water / aqueous solutions” value in data set [2] is “very poor solubility in water”. For the same molecule, the cannabimimetic activity entry in data set [3] was “inactive as a cannabimimetic”. The survival rate came to 91% in the data set with LPS treated mice (LPS 10 mg/kg iv, HU-211 10 mg/kg i.p., vehicle 43%) and 67% in the data set with LPS treated mice (LPS 15 mg/kg iv, HU-211 10 mg/kg i.p., vehicle 33%). Also, the mortality (as a rule, the percentage killed) in the data set with LPS treated mice (LPS 10 mg/kg iv, HU-211 10 mg/kg i.p., vehicle 57%) was 9%; with LPS treated mice (LPS 15 mg/kg iv, HU-211 10 mg/kg i.p. 30 min before, vehicle 67%), 33%. Besides, the survival with LPS treated mice (LPS 10 mg/kg iv, HU-211 10 mg/kg i.p., 48 hours, vehicle none survived) is reported as 33%; in the data set on LPS treated mice (LPS 10 mg/kg iv, HU-211 10 mg/kg i.p., 72 hours post LPS), “None of the animals survived”; with LPS treated mice (LPS 15 mg/kg iv, HU-211 10 mg/kg i.p., 48 hours), “none of the animals survived”. Moreover, the “brain levels of TNF after CHI, compared with pentoxyfilline” value in the data set on TNF [4] is on record as “significantly superior to that of pentoxyfilline”. Besides, the “brain tissue water content (anti-edema effect) after CHI, compared with pentoxyfilline” value with TNF [4] is “significantly superior to that of pentoxyfilline”. For the same molecule, the toxicity or psychoactivity result in data set [5] is reported as “no evidence of toxicity or psychoactivity”. Also, in the data set on TNF [6], the “edema and clinical outcome after head trauma” value is “reduced edema and improved the clinical outcome”.
